Test results as given in patent US11427869B2, “T cell balance gene expression, compositions of matters and methods of use thereof” (THE BROAD INSTITUTE, INC., priority 2015, dated 2022).

System: CD5L−/− Th17 cells
Test: Nanostring nCounter Th17 codeset (312 genes), PUFA- or control-treated CD5L−/− Th17 cells
Assay type: cell-based, mouse
Details: CD5LKO Th17 cells + PUFA
From the text: Applicants studied the contribution of lipid saturation to Th17 cell pathogenicity. […] Applicants analyzed the expression of a 312 gene signature of Th17 cell differentiation and function (Yosef et al., 2013) in SFA- or control-treated WT Th17 cells and in PUFA- or control-treated CD5L−/− Th17 cells differentiated with TGF-81+IL-6.
T cell differentiation culture. Naïve CD4+CD44−CD62L+CD25− T cells or Effector memory CD4+CD44+CD62L− were sorted using BD FACSAria sorter and activated with plate-bound anti-CD3 and anti-CD28 antibodies (both at 2 μg/ml) in the presence of cytokines at a concentration of 2.5×10^5 cells/ml. For Th17 differentiation: 2 ng/ml of rhTGFβ1, 2 ng/ml of rhTGFβ3, 25 ng/ml rmIL-6, 20 ng/ml rmIL-18 (all from Miltenyi Biotec) and 20 ng/ml rmIL-23 (R & D systems) were used at various combinations as specified in figures. For Th1 differentiation, 20 ng/ml rmIL-12 (R & D systems); for Th2 differentiation 20 ng/ml rmIL-4 (Miltenyi Biotec); for iTreg differentiation, 2.5 ng/ml of rhTGFβ1 were used (Miltenyi Biotec). For differentiation experiments, cells were harvested at 48 hours. For restimulation experiments, cells were differentiated for 48 hours and resuspended in fresh media with no additional cytokines for 48-72 hours. Cells were re-stimulated with PMA/ionomycin for four hours before analysis for cytokines by intracellular cytokine staining. For experiments with exogenous fatty acid, fatty acids were purchased and resuspended first with serum-free media containing BSA prior being added to culture.
Nanostring nCounter. Nanostring nCounter platform (NanoString Technologies) is used to measure the number of RNA transcripts in RNA samples (FIG. 16I, FIG. 18D). A codeset containing 312 signature genes of Th17 cell differentiation and function as well as 4 additional house-keeping genes were custom-made (Yosef et al., 2013) and used in these experiments. Experimental procedures as detailed by the manufacturer is strictly followed.

## CCCCC/C=C\C/C=C\C/C=C\C/C=C\CCCC(=O)O [PUFA, arachidonic acid]
  ATF2 expression (Nanostring), normalized to WT: 0.89
  Abcg2 expression (Nanostring), normalized to WT: 1.20
  Acvr2a expression (Nanostring), normalized to WT: 1.32
  Ahr expression (Nanostring), normalized to WT: 1.08
  Arl5a expression (Nanostring), normalized to WT: 1.33
  Atf4 expression (Nanostring), normalized to WT: 0.73
  BC021614 expression (Nanostring), normalized to WT: 1.04
  Bcl2l11 expression (Nanostring), normalized to WT: 0.71
  Bcl3 expression (Nanostring), normalized to WT: 1.13
  Bcl11b expression (Nanostring), normalized to WT: 1.03
  Bhlhe40 expression (Nanostring), normalized to WT: 0.70
  Casp3 expression (Nanostring), normalized to WT: 0.71
  Casp4 expression (Nanostring), normalized to WT: 1.52
  Ccl1 expression (Nanostring), normalized to WT: 0.67
  Ccl20 expression (Nanostring), normalized to WT: 0.84
  Ccr4 expression (Nanostring), normalized to WT: 1.69
  Ccr8 expression (Nanostring), normalized to WT: 0.71
  Cd9 expression (Nanostring), normalized to WT: 1.27
  Cd70 expression (Nanostring), normalized to WT: 0.77
  Cd83 expression (Nanostring), normalized to WT: 0.88
  Cd86 expression (Nanostring), normalized to WT: 1.73
  Cd247 expression (Nanostring), normalized to WT: 1.32
  Clcf1 expression (Nanostring), normalized to WT: 1.25
  Csf2 expression (Nanostring), normalized to WT: 1.20
  Ctla4 expression (Nanostring), normalized to WT: 1.63
  Cxcl10 expression (Nanostring), normalized to WT: 1.64
  Cxcr3 expression (Nanostring), normalized to WT: 1.44
  Cxcr4 expression (Nanostring), normalized to WT: 0.87
  Cxcr5 expression (Nanostring), normalized to WT: 1.42
  EBF1 expression (Nanostring), normalized to WT: 1.64
  Egr2 expression (Nanostring), normalized to WT: 1.64
  Elk3 expression (Nanostring), normalized to WT: 1.04
  Ercc5 expression (Nanostring), normalized to WT: 0.66
  Etv6 expression (Nanostring), normalized to WT: 1.70
  Faim3 expression (Nanostring), normalized to WT: 1.31
  Fli1 expression (Nanostring), normalized to WT: 1.35
  Flna expression (Nanostring), normalized to WT: 1.10
  Foxo1 expression (Nanostring), normalized to WT: 1.03
  Foxp1 expression (Nanostring), normalized to WT: 1.25
  Foxp3 expression (Nanostring), normalized to WT: 1.22
  Frmd4b expression (Nanostring), normalized to WT: 1.28
  Fxd7 expression (Nanostring), normalized to WT: 0.72
  Gap43 expression (Nanostring), normalized to WT: 0.68
  Gem expression (Nanostring), normalized to WT: 0.73
  Gimap5 expression (Nanostring), normalized to WT: 1.58
  Gja1 expression (Nanostring), normalized to WT: 0.66
  Gmfg expression (Nanostring), normalized to WT: 0.76
  Grn expression (Nanostring), normalized to WT: 1.16
  Gusb expression (Nanostring), normalized to WT: 0.94
  Hip1r expression (Nanostring), normalized to WT: 0.89
  IL-33 expression (Nanostring), normalized to WT: 0.66
  Ifih1 expression (Nanostring), normalized to WT: 1.25
  Ifng expression (Nanostring), normalized to WT: 0.93
  Ikzf3 expression (Nanostring), normalized to WT: 1.06
  Il1r1 expression (Nanostring), normalized to WT: 1.36
  Il2ra expression (Nanostring), normalized to WT: 0.99
  Il3 expression (Nanostring), normalized to WT: 1.45
  Il4ra expression (Nanostring), normalized to WT: 1.13
  Il6st expression (Nanostring), normalized to WT: 0.89
  Il7r expression (Nanostring), normalized to WT: 1.37
  Il10 expression (Nanostring), normalized to WT: 1.01
  Il10ra expression (Nanostring), normalized to WT: 0.95
  Il12rb1 expression (Nanostring), normalized to WT: 0.80
  Il12rb2 expression (Nanostring), normalized to WT: 1.60
  Il17a expression (Nanostring), normalized to WT: 1.11
  Il17f expression (Nanostring), normalized to WT: 0.71
  Il21 expression (Nanostring), normalized to WT: 0.97
  Il23r expression (Nanostring), normalized to WT: 1.11
  Il27ra expression (Nanostring), normalized to WT: 1.55
  Inhba expression (Nanostring), normalized to WT: 0.81
